According to PubChem BioAssay (NCI):
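Cultured in 96-well plates, cells were exposed to test compound for 48 hours across five concentrations. TGI is the concentration that stops growth completely.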

Key:
Assay in all cases: NCI tumour cell line growth inhibition, 48 h
HCT-15 colon = test system: HCT-15 colon
HOP-18 NSCLC = test system: HOP-18 NSCLC
K-562 leukemia = test system: K-562 leukemia
KM20L2 colon = test system: KM20L2 colon
M14 melanoma = test system: M14 melanoma
NCI-H23 lung = test system: NCI-H23 lung
OVCAR-4 ovarian = test system: OVCAR-4 ovarian
OVCAR-8 ovarian = test system: OVCAR-8 ovarian
RXF 393 renal = test system: RXF 393 renal
SF-268 CNS = test system: SF-268 CNS
SF-539 CNS = test system: SF-539 CNS
SK-MEL-2 melanoma = test system: SK-MEL-2 melanoma
SK-MEL-5 melanoma = test system: SK-MEL-5 melanoma
SN12C renal = test system: SN12C renal
SNB-75 CNS = test system: SNB-75 CNS
SNB-78 CNS = test system: SNB-78 CNS
TK-10 renal = test system: TK-10 renal
U251 CNS = test system: U251 CNS
ACHN renal = test system: ACHN renal
COLO 205 colon = test system: COLO 205 colon

O=C(Nc1cccc2ccccc12)Oc1ccccc1C1CCCCC1
TGI (HCT-15 colon): 33.9 µM | TGI (HOP-18 NSCLC): 33.2 µM | TGI (K-562 leukemia): 60.4 µM | TGI (KM20L2 colon): 47.5 µM | TGI (M14 melanoma): 32.4 µM | TGI (NCI-H23 lung): 33.7 µM | TGI (OVCAR-4 ovarian): 32.7 µM | TGI (OVCAR-8 ovarian): 32.5 µM | TGI (RXF 393 renal): 29.2 µM | TGI (SF-268 CNS): 98.9 µM | TGI (SF-539 CNS): 32 µM | TGI (SK-MEL-2 melanoma): 40.4 µM | TGI (SK-MEL-5 melanoma): 28.8 µM | TGI (SN12C renal): 30.1 µM | TGI (SNB-75 CNS): 29.8 µM | TGI (SNB-78 CNS): 57.9 µM | TGI (TK-10 renal): 72.3 µM | TGI (U251 CNS): 26.7 µM

Cn1cnc([N+](=O)[O-])c1Sc1nc2cc(Cl)c(F)cc2[nH]1
TGI (ACHN renal): 34.1 µM | TGI (COLO 205 colon): 22 µM | TGI (HCT-15 colon): 17.6 µM | TGI (HOP-18 NSCLC): 29 µM | TGI (KM20L2 colon): 26.9 µM | TGI (M14 melanoma): 27.6 µM | TGI (NCI-H23 lung): 31.3 µM | TGI (OVCAR-4 ovarian): 21 µM | TGI (OVCAR-8 ovarian): 23.2 µM | TGI (RXF 393 renal): 9.93 µM | TGI (SF-268 CNS): 29.5 µM | TGI (SF-539 CNS): 16.7 µM | TGI (SK-MEL-5 melanoma): 24 µM | TGI (SN12C renal): 29.7 µM | TGI (SNB-75 CNS): 39.3 µM | TGI (SNB-78 CNS): 25.9 µM | TGI (TK-10 renal): 33 µM | TGI (U251 CNS): 24 µM

COC(=O)C(=O)C(C(=O)Nc1cccc(C)c1C)C1Sc2ccccc2NC1=O (configuration not stated)
TGI (ACHN renal): > 25 µM | TGI (COLO 205 colon): > 25 µM | TGI (HCT-15 colon): > 25 µM | TGI (HOP-18 NSCLC): > 25 µM | TGI (K-562 leukemia): > 25 µM | TGI (KM20L2 colon): > 25 µM | TGI (M14 melanoma): > 25 µM | TGI (NCI-H23 lung): > 25 µM | TGI (OVCAR-4 ovarian): > 25 µM | TGI (OVCAR-8 ovarian): > 25 µM | TGI (RXF 393 renal): 23.8 µM | TGI (SF-268 CNS): > 25 µM | TGI (SF-539 CNS): > 25 µM | TGI (SK-MEL-2 melanoma): 18.3 µM | TGI (SK-MEL-5 melanoma): > 25 µM | TGI (SN12C renal): > 25 µM | TGI (SNB-75 CNS): > 25 µM | TGI (SNB-78 CNS): > 25 µM | TGI (TK-10 renal): > 25 µM | TGI (U251 CNS): > 25 µM

O=c1cnn(C/C=C\CO)c(=O)[nH]1
TGI (ACHN renal): > 100 µM | TGI (COLO 205 colon): > 100 µM | TGI (HCT-15 colon): > 100 µM | TGI (K-562 leukemia): > 100 µM | TGI (M14 melanoma): > 100 µM | TGI (NCI-H23 lung): > 100 µM | TGI (OVCAR-8 ovarian): > 100 µM | TGI (RXF 393 renal): > 100 µM | TGI (SF-268 CNS): > 100 µM | TGI (SF-539 CNS): > 100 µM | TGI (SK-MEL-2 melanoma): > 100 µM | TGI (SK-MEL-5 melanoma): > 100 µM | TGI (SN12C renal): > 100 µM | TGI (SNB-75 CNS): > 100 µM | TGI (TK-10 renal): > 100 µM | TGI (U251 CNS): > 100 µM
